Measured values from patent publication US9458176B2, “Tetrahydroimidazo(1,5-D)[1,4]oxazepine derivative” (Eisai R&D Management Co., Ltd., priority 2013, dated 2016).
Marks after values point to notes of the source that are not given here.

How the values were obtained:
human mGluR2 = human mGluR2 (Homo sapiens (Human), UniProt Q14416); experiment: [35S]GTPγS binding assay (Affinity to mGluR2); assay type: biochemical; conditions: cell membrane fraction of HEK293 cells stably expressing human mGluR2; glutamic acid 10 μM
human mGluR2, sequence (Q14416 19-872): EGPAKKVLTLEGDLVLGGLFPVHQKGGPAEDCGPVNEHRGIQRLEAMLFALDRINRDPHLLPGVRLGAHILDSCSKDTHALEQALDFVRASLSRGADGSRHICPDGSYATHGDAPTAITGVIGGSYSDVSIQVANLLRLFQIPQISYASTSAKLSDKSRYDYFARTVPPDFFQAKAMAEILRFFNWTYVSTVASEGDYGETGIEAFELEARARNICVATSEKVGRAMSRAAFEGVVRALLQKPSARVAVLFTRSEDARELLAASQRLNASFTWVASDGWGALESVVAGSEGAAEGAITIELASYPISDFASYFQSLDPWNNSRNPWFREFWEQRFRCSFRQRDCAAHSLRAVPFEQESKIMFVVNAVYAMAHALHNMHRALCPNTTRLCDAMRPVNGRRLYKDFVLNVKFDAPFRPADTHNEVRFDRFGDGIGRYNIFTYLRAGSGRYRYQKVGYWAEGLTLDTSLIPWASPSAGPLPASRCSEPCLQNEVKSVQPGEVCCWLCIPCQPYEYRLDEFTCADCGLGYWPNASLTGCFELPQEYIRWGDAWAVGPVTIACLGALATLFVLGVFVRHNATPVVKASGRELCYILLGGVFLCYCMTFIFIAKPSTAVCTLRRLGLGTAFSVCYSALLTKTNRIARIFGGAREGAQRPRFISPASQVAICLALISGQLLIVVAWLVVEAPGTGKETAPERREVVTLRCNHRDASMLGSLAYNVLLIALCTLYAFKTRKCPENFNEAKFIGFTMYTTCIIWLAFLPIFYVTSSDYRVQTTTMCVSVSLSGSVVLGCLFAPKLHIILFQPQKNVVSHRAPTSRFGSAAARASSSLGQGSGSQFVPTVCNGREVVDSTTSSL
In short: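 Membranes from HEK293 cells stably co-expressing human mGluR2 and SLC1A3 (1.8–3 μg protein) preincubated with compound 30 min at RT, then stimulated with 10 μM glutamate 15 min; [35S]GTPγS (0.8 kBq) with WGA-SPA beads 1 h, buffer with 3 μM GDP, 100 mM NaCl, 1 mM MgCl2. IC50 from inhibition of glutamate-specific binding.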

Long-Evans rats = experiment: Novel Object Recognition (NOR) test in rats with scopolamine-induced cognitive impairment; assay type: in vivo, rat; conditions: male Long-Evans rats, scopolamine 0.3 mg/kg i.p.; statistically significant difference in discrimination index vs scopolamine alone group
Protocol: Six-week old male Long-Evans rats were used for this test. For 2 days before starting the test, the rats were acclimated to experimental operations such as administration and a test device (that is, a black or gray plastic cage with a width of 40 cm, a depth of 30 cm and a height of 45 cm). Each test compound was dissolved in a 0.1 N hydrochloric acid to be orally administered. Thirty minutes after the administration, scopolamine hydrobromide was intraperitoneally administered at a 0.3 mg/kg dose, so as to induce cognitive impairment. After another 30 minutes, each rat was acclimated in the test device for 3 minutes, and thereafter, two blocks in the same shape were put in the test device as acquisition trial, and exploring time for each block was measured for 5 minutes. Two hours after the acquisition trial, the rat was acclimated in the test device for 3 minutes, and thereafter, the same block as those used in the acquisition trial and a new block in a different shape were put in the cage for retention trial. The exploring time for each block was measured for 3 minutes, and a ratio of the exploring time for the newly used block to the sum of the exploring times for the respective blocks was calculated as a discrimination index. The thus obtained discrimination indexes were compared among a group of rats to which a medium alone was administered (medium group), a group of rats to which scopolamine alone was administered (scopolamine alone group) and a group of rats to which both the test compound and scopolamine were administered, so as to evaluate the action of the test compound on the novel object recognition function (cognitive function) of the rats.
Each discrimination index was shown as an average and a standard error. The statistical significance between the medium group and the scopolamine alone group was analyzed by the independent t-test. The statistical significance between the scopolamine alone group and each sample group was analyzed by one-way analysis of variance and then by Dunnett's multiple comparison test. The significance level was set to 5% on both sides. […] The analysis was carried out by using Prism 5 for Windows for Japanese, ver. 5.03.
A minimum effective dose at which a statistically significant difference was found between a group suffering from the cognitive impairment induced by scopolamine and a group treated with each compound is shown in Table 10.

| Compound | IC50 (human mGluR2) [nM] | Minimum effective dose (Long-Evans rats) |
| --- | --- | --- |
| COc1cc(-c2nc(-c3cc(C)nc(C)c3)c3n2C[C@@H](C)OCC3)ccc1Cl [Example 1, (R)-3-(4-chloro-3-methoxyphenyl)-1-(2,6-dimethylpyridin-4-yl)-6-methyl-5,6,8,9-tetrahydroimidazo[1,5-d][1,4]oxazepine] | 10 | 3 mg/kg, p.o. |
| COc1cc(-c2nc(-c3cc(C)nc(C)c3)c3n2C[C@@H](C)OCC3)ccc1C(F)(F)F [Example 7, (R)-1-(2,6-dimethylpyridin-4-yl)-3-(3-methoxy-4-(trifluoromethyl)phenyl)-6-methyl-5,6,8,9-tetrahydroimidazo[1,5-d][1,4]oxazepine] | 4.2 | 0.3 mg/kg, p.o. |
| COc1cc(-c2nc(-c3cc(C)nc(C)c3)c3n2C[C@@H](CF)OCC3)ccc1Cl [Example 11, (S)-3-(4-chloro-3-methoxyphenyl)-1-(2,6-dimethylpyridin-4-yl)-6-fluoromethyl-5,6,8,9-tetrahydroimidazo[1,5-d][1,4]oxazepine] | 11.4 | >1* mg/kg, p.o. |

Further lines, with some results ahead:

| IC50 (human mGluR2) [nM] | Compound | Minimum effective dose (Long-Evans rats) |
| --- | --- | --- |
| 4.8 | COc1cc(-c2nc(-c3ccnc(C)c3)c3n2C[C@@H](C)OCC3)ccc1OC(F)(F)F [Example 24, (R)-3-(3-methoxy-4-(trifluoromethoxy)phenyl)-6-methyl-1-(2-methylpyridin-4-yl)-5,6,8,9-tetrahydroimidazo[1,5-d][1,4]oxazepine] | 1 mg/kg, p.o. |
| 22 | Cc1cc(-c2nc(-c3ccc(Cl)c(F)c3)n3c2CCO[C@H](C)C3)cc(CF)n1 [Example 87] | 3 mg/kg, p.o. |
| 5.6 | Cc1cc(-c2nc(-c3ccc(OC(F)F)c(C)c3)n3c2CCO[C@H](C)C3)cc(C)n1 [Example 14, (R)-3-(4-(difluoromethoxy)-3-methylphenyl)-1-(2,6-dimethylpyridin-4-yl)-6-methyl-5,6,8,9-tetrahydroimidazo[1,5-d][1,4]oxazepine] | 1 mg/kg, p.o. |
| 22.3 | COc1cc(-c2nc(-c3cc(C)nc(C)c3)c3n2CCOCC3)ccc1Cl [Example 44] | 1 mg/kg, p.o. |
